{"source": "paper PMC2790889", "about": "(Nucleic Acids Research, 2009)", "key": {"[1]": {"test_system": "TrmFO", "conditions": "cited from earlier work"}, "[2]": {"target": "T1, GidA (Escherichia coli, UniProt P0A6U3)", "T1 sequence (P0A6U3 1-629)": "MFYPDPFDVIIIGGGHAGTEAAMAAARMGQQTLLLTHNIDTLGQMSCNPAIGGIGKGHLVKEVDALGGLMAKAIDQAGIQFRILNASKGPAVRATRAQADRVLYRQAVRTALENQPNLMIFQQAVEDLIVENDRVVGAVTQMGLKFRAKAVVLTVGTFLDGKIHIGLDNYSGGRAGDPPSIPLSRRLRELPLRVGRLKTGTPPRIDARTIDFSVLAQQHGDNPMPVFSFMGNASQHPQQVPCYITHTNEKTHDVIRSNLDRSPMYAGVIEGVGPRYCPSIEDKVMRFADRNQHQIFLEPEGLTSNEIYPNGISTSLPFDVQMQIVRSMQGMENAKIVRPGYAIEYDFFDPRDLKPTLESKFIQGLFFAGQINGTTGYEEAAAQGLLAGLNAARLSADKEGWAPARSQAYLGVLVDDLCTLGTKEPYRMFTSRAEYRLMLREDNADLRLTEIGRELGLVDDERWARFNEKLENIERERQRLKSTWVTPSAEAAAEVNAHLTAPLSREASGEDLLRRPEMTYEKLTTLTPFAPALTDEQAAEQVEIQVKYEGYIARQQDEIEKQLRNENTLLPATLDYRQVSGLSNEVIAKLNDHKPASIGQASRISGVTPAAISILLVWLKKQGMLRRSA", "experiment": "Affinity of GidA for FAD and NADH", "type": "binding"}, "[3]": {"target": "T1, GidA", "conditions": "read-out: Kd (affinity of GidA for NADH); cited from earlier work"}}, "note": "Read-outs that look alike come from different tables or passages of the source.", "data": [{"compound": "(6S) THF", "values": [{"measurement": "concentrations of THF that inhibit the methylene-THF-dependent activity of TrmFO", "setting": "[1]", "result": "higher than 2 µM"}]}, {"compound": "Cc1cc2nc3c(=O)[nH]c(=O)nc-3n(C[C@H](O)[C@H](O)[C@H](O)COP(=O)(O)OP(=O)(O)OC[C@H]3O[C@@H](n4cnc5c(N)ncnc54)[C@H](O)[C@@H]3O)c2cc1C", "note": "[FAD]", "values": [{"measurement": "Kd", "setting": "[2]", "result": "~3", "unit": "µM"}]}, {"compound": "NC(=O)C1=CN([C@@H]2O[C@H](COP(=O)(O)OP(=O)(O)OC[C@H]3O[C@@H](n4cnc5c(N)ncnc54)[C@H](O)[C@@H]3O)[C@@H](O)[C@H]2O)C=CC1", "note": "[NADH]", "values": [{"measurement": "Kd", "setting": "[3]", "result": "~11", "unit": "µM"}]}]}
